Assay results reported in patent US9365583B2, “Substituted pyrazoles and uses thereof” (Genentech, Inc., priority 2013, dated 2016).

Biological target: T1, N-terminally GST-tagged DLK (catalytic domain amino acid 1-520) (Homo sapiens, UniProt Q12852)
T1 construct: N-terminally GST-tagged DLK (catalytic domain amino acid 1-520); purchased Carna Bioscience
T1 sequence (Q12852 1-520): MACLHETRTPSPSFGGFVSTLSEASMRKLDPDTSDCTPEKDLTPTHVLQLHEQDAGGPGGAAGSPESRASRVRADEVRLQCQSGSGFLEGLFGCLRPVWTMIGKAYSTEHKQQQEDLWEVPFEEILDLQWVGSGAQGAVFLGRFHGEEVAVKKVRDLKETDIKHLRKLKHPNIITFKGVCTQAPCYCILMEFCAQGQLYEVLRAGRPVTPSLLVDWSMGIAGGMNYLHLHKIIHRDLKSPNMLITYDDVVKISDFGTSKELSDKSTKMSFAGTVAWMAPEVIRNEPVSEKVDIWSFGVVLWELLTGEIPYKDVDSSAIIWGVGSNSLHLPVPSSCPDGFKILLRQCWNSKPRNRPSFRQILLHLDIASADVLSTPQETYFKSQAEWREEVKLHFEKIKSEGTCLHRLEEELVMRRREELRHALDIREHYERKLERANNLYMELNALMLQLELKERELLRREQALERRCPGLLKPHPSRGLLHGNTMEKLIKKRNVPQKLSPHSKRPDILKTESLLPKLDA
Test: DLK TR-FRET inhibition assay
Type: biochemical
Conditions: 5 nM GST-DLK, 40 nM HIS-MKK4 K131M substrate, 30 μM ATP, 60 minutes at ambient temperature
Summary of the method: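 5 nM GST-DLK (aa 1-520), 40 nM HIS-MKK4 K131M and 30 μM ATP reacted 60 min at ambient temperature in HEPES pH 7.5 buffer with 10 mM MgCl2, compound 1:3 serially diluted from 20 uM. TR-FRET detection of phospho-MKK4 used Eu-cryptate anti-phospho-MKK4 plus D2 anti-HIS, read after 3 h (665/615 nm).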

SMILES	Ki
CC(C)n1nc(-c2cnc(N)c(OC(F)(F)F)c2)cc1[C@H]1[C@@H]2C[C@H](N3C[C@@H]4C[C@H]3CN4C)C[C@@H]21 [compound 201, 5-(1-isopropyl-5-((1R,3r,5S,6S)-3-((1S,4S)-5-methyl-2,5-diazabicyclo [2.2.1]heptan-2-yl)bicyclo [3.1.0]hexan-6-yl)-1H-pyrazol-3-yl)-3-(trifluoromethoxy) pyridin-2-amine]	1.3 nM
CC(C)n1nc(-c2cnc(N)c(OC(F)F)c2)cc1[C@H]1[C@@H]2C[C@H](N3C[C@@H]4C[C@H]3CN4C)C[C@@H]21 [compound 202, 3-(difluoromethoxy)-5-(1-isopropyl-5-((1R,3r,5S,6S)-3-((1S,4S)-5-methyl-2,5-diazabicyclo[2.2.1]heptan-2-yl)bicyclo[3.1.0]hexan-6-yl)-1H-pyrazol-3-yl) pyridin-2-amine]	1.2 nM
CC(C)n1nc(-c2cnc(N)c(OC(F)(F)F)c2)cc1[C@H]1[C@@H]2C[C@@H](N3CCCN(C)CC3)C[C@@H]21 [compound 203, 5-(1-isopropyl-5-((1R,3s,5S,6r)-3-(4-methyl-1,4-diazepan-1-yl)bicyclo[3.1.0]hexan-6-yl)-1H-pyrazol-3-yl)-3-(trifluoromethoxy) pyridin-2-amine]	0.9 nM
CC(C)n1nc(-c2cnc(N)c(OC(F)(F)F)c2)cc1[C@H]1[C@@H]2C[C@H](N3CCCN(C)CC3)C[C@@H]21 [compound 204, 5-(1-isopropyl-5-((1R,3r,5S,6r)-3-(4-methyl-1,4-diazepan-1-yl)bicyclo[3.1.0]hexan-6-yl)-1H-pyrazol-3-yl)-3-(trifluoromethoxy) pyridin-2-amine]	1.2 nM
CC(C)n1nc(-c2cnc(N)c(OC(F)F)c2)cc1[C@H]1[C@@H]2C[C@@H](N3CCCN(C)CC3)C[C@@H]21 [compound 205, 3-(difluoromethoxy)-5-(1-isopropyl-5-((1R,3s,5S,6r)-3-(4-methyl-1,4-diazepan-1-yl)bicyclo [3.1.0]hexan-6-yl)-1H-pyrazol-3-yl)pyridin-2-amine]	2.9 nM
CC(C)n1nc(-c2cnc(N)c(OC(F)F)c2)cc1[C@H]1[C@@H]2C[C@@H](N3C[C@@H]4C[C@H]3CN4C)C[C@@H]21 [compound 206, 3-(difluoromethoxy)-5-(1-isopropyl-5-((1R,3s,5S,6S)-3-((1S,4S)-5-methyl-2,5-diazabicyclo [2.2.1]heptan-2-yl)bicyclo[3.1.0]hexan-6-yl)-1H-pyrazol-3-yl) pyridin-2-amine]	2.1 nM
CC(C)n1nc(-c2cnc(N)c(C(F)(F)F)c2)cc1[C@H]1[C@@H]2C[C@@H](N3C[C@@H]4C[C@H]3CN4C)C[C@@H]21 [compound 207, 5-(1-isopropyl-5-((1R,3s,5S,6S)-3-((1S,4S)-5-methyl-2,5-diazabicyclo [2.2.1]heptan-2-yl)bicyclo [3.1.0]hexan-6-yl)-1H-pyrazol-3-yl)-3-(trifluoromethyl) pyridin-2-amine]	3.6 nM
CC(C)n1nc(-c2cnc(N)c(OC(F)F)c2)cc1[C@H]1[C@@H]2C[C@H](N3CCCN(C)CC3)C[C@@H]21 [compound 208, 3-(difluoromethoxy)-5-(1-isopropyl-5-((1R,3r,5S,6r)-3-(4-methyl-1,4-diazepan-1-yl)bicyclo[3.1.0]hexan-6-yl)-1H-pyrazol-3-yl) pyridin-2-amine]	1.5 nM
CC(C)n1nc(-c2cnc(N)c(OC(F)(F)F)c2)cc1[C@H]1[C@@H]2C[C@@H](N3C[C@@H]4C[C@H]3CN4C)C[C@@H]21 [compound 209, 5-(1-isopropyl-5-((1R,3s,5S,6S)-3-((1S,4S)-5-methyl-2,5-diazabicyclo [2.2.1]heptan-2-yl)bicyclo [3.1.0]hexan-6-yl)-1H-pyrazol-3-yl)-3-(trifluoromethoxy) pyridin-2-amine]	2.6 nM
CC(C)n1nc(-c2cnc(N)c(C(F)(F)F)c2)cc1[C@H]1[C@@H]2C[C@@H](N3CCCN(C)CC3)C[C@@H]21 [compound 210, 5-(1-isopropyl-5-((1R,3s,5S,6r)-3-(4-methyl-1,4-diazepan-1-yl)bicyclo[3.1.0]hexan-6-yl)-1H-pyrazol-3-yl)-3-(trifluoromethyl) pyridin-2-amine]	2 nM
CC(C)n1nc(-c2cnc(N)c(C(F)(F)F)c2)cc1[C@H]1[C@@H]2C[C@H](N3CCCN(C)CC3)C[C@@H]21 [compound 211, 5-(1-isopropyl-5-((1R,3r,5S,6r)-3-(4-methyl-1,4-diazepan-1-yl)bicyclo[3.1.0]hexan-6-yl)-1H-pyrazol-3-yl)-3-(trifluoromethyl) pyridin-2-amine]	3.2 nM
CO[C@H]1CCN([C@H]2C[C@@H]3[C@H](C2)[C@H]3c2cc(-c3cnc(N)c(OC(F)F)c3)nn2C(C)C)C1 [compound 212, 3-(difluoromethoxy)-5-(1-isopropyl-5-((1R,3r,5S,6S)-3-((S)-3-methoxypyrrolidin-1-yl)bicyclo [3.1.0]hexan-6-yl)-1H-pyrazol-3-yl)pyridin-2-amine]	4.4 nM
CC(C)n1nc(-c2cnc(N)c(OC(F)F)c2)cc1[C@H]1[C@@H]2C[C@H](F)C[C@@H]21 [compound 213, 3-(difluoromethoxy)-5-(5-((1R,3r,5S,6r)-3-fluorobicyclo[3.1.0]hexan-6-yl)-1-isopropyl-1H-pyrazol-3-yl)pyridin-2-amine]	5.1 nM
CO[C@H]1CCN([C@@H]2C[C@@H]3[C@H](C2)[C@H]3c2cc(-c3cnc(N)c(OC(F)(F)F)c3)nn2C(C)C)C1 [compound 214, 5-(1-isopropyl-5-((1R,3s,5S,6S)-3-((S)-3-methoxypyrrolidm-1-yl)bicyclo[3.1.0]hexan-6-yl)-1H-pyrazol-3-yl)-3-(trifluoromethoxy) pyridin-2-amine]	1.5 nM
CO[C@H]1CCN([C@@H]2C[C@@H]3[C@H](C2)[C@H]3c2cc(-c3cnc(N)c(OC(F)F)c3)nn2C(C)C)C1 [compound 215, 3-(difluoromethoxy)-5-(1-isopropyl-5-((1R,3s,5S,6S)-3-((S)-3-methoxypyrrolidin-1-yl)bicyclo [3.1.0]hexan-6-yl)-1H-pyrazol-3-yl)pyridin-2-amine]	1.4 nM
CC(C)n1nc(-c2cnc(N)c(OC(F)F)c2)cc1[C@H]1[C@@H]2CC(F)(F)C[C@@H]21 [compound 216, 5-(5-((1R,5S,6r)-3,3-difluorobicyclo [3.1.0]hexan-6-yl)-1-isopropyl-1H-pyrazol-3-yl)-3-(difluoro-methoxy)pyridin-2-amine]	6.6 nM
CC(C)n1nc(-c2cnc(N)c(OC(F)F)c2)cc1[C@H]1[C@@H]2C[C@@H](F)C[C@@H]21 [compound 217, 3-(difluoromethoxy)-5-(5-((1R,3s,5S,6r)-3-fluorobicyclo[3.1.0]hexan-6-yl)-1-isopropyl-1H-pyrazol-3-yl)pyridin-2-amine]	4.2 nM
CC(C)n1nc(-c2cnc(N)c(OC(F)(F)F)c2)cc1[C@H]1[C@@H]2C[C@@H](N3CC4(CN(C)CCO4)C3)C[C@@H]21 [compound 219, 5-(1-isopropyl-5-((1R,3s,5S,6r)-3-(8-methyl-5-oxa-2,8-diazaspiro [3.5]nonan-2-yl)bicyclo[3.1.0]hexan-6-yl)-1H-pyrazol-3-yl)-3-(trifluoromethoxy)pyridin-2-amine]	2.2 nM
CC(C)n1nc(-c2cnc(N)c(OC(F)(F)F)c2)cc1[C@H]1[C@@H]2C[C@H](N3CC4(CN(C)CCO4)C3)C[C@@H]21 [compound 220, 5-(1-isopropyl-5-((1R,3r,5S,6r)-3-(8-methyl-5-oxa-2,8-diazaspiro [3.5]nonan-2-yl)bicyclo[3.1.0]hexan-6-yl)-1H-pyrazol-3-yl)-3-(trifluoromethoxy)pyridin-2-amine]	2.1 nM
CC(C)n1nc(-c2cnc(N)c(OC(F)(F)F)c2)cc1[C@H]1[C@@H]2C[C@@H](N3CC4(CCCO4)C3)C[C@@H]21 [compound 221, 5-(5-((1R,3s,5S,6r)-3-(5-oxa-2-azaspiro[3.4]octan-2-yl)bicyclo [3.1.0]hexan-6-yl)-1-isopropyl-1H-pyrazol-3-yl)-3-(trifluoromethoxy) pyridin-2-amine]	2 nM
CC(C)n1nc(-c2cnc(N)c(C(F)(F)F)c2)cc1[C@H]1[C@@H]2C[C@@H](N3CC4(CCCO4)C3)C[C@@H]21 [compound 222, 5-(5-((1R,3s,5S,6r)-3-(5-oxa-2-azaspiro[3.4]octan-2-yl)bicyclo [3.1.0]hexan-6-yl)-1-isopropyl-1H-pyrazol-3-yl)-3-(trifluoromethyl) pyridin-2-amine]	2.7 nM
CC(C)n1nc(-c2cnc(N)c(OC(F)F)c2)cc1[C@H]1[C@@H]2C[C@@H](N3CC4(CCCO4)C3)C[C@@H]21 [compound 223, 5-(5-((1R,3s,5S,6r)-3-(5-oxa-2-azaspiro[3.4]octan-2-yl)bicyclo [3.1.0]hexan-6-yl)-1-isopropyl-1H-pyrazol-3-yl)-3-(difluoro-methoxy)pyridin-2-amine]	2.6 nM
